Values quoted from earlier work in paper PMC6151660 (Molecules : A Journal of Synthetic Chemistry and Natural …, 2017).

System: M. tuberculosis, H37Rv
Conditions: cited from earlier work

Q: With `CO[C@@H]1[C@@H](OC(N)=O)[C@@H](O)[C@H](Oc2ccc3c(O)c(NC(=O)c4ccc(O)c(CC=C(C)C)c4)c(=O)oc3c2C)OC1(C)C` [Novobiocin] as the molecule, how does the MIC read?
A: The MIC was “approximately 6.5 µM”.
